Laboratory results as given in the NIST ThermoML archive (doi:10.1016/j.jct.2016.05.017).
Where “and” joins values, the source holds several entries; their conditions need not be identical. Equal values may be shown once.

Assays:
[1] = for vapor or sublimation pressure: Transpiration method; for Triple point temperature: DSC
[2] = Molar enthalpy of transition or fusion; details: Crystal; DSC

CC(=O)C12CC3CC(CC(C3)C1)C2 [1-adamantyl methyl ketone]
[1]
Details	vapor or sublimation pressure
291.6 K, Crystal	0.00076 kPa
293.7 K, Crystal	0.00099 kPa
296.5 K, Crystal	0.00136 kPa
298.4 K, Crystal	0.00174 kPa
303.3 K, Crystal	0.00299 kPa
308.2 K, Crystal	0.00505 kPa
308.4 K, Crystal	0.00506 kPa
313.2 K, Crystal	0.0085 kPa
316.2 K, Crystal	0.01174 kPa
318.2 K, Crystal	0.01406 kPa
318.7 K, Crystal	0.01511 kPa
320.3 K, Crystal	0.01713 kPa
323.3 K, Crystal	0.02368 kPa
331.3 K, Liquid	0.0399 kPa and 0.0404 kPa
333.2 K, Liquid	0.04637 kPa and 0.0468 kPa
335.2 K, Liquid	0.0516 kPa
338.2 K, Liquid	0.0633 kPa
341.2 K, Liquid	0.0767 kPa
343.1 K, Liquid	0.08701 kPa
346.2 K, Liquid	0.1025 kPa
348.1 K, Liquid	0.1221 kPa
348.3 K, Liquid	0.1231 kPa
351.7 K, Liquid	0.1433 kPa
352.1 K, Liquid	0.1514 kPa
353.1 K, Liquid	0.1567 kPa
355.5 K, Liquid	0.1853 kPa
356 K, Liquid	0.1912 kPa
358.1 K, Liquid	0.2111 kPa
358.2 K, Liquid	0.2186 kPa
360.4 K, Liquid	0.2451 kPa
363.1 K, Liquid	0.2835 kPa

Details	Triple point temperature [K]
[1], Crystal	325.2

Details	Molar enthalpy of transition or fusion [kcal/mol]
[2]	4.66

O=C1C2CC3CC(C2)CC1C3 [2-adamantanone]
[1], Crystal
Details	vapor or sublimation pressure [kPa]
293.5 K	0.00109
296.4 K	0.00142
297.4 K	0.00156
298.5 K	0.00172
300.4 K	0.00199
303.4 K	0.00258
306.4 K	0.00341
308.4 K	0.00417
313.4 K	0.00608
318.4 K	0.00903
323.4 K	0.01275
328.4 K	0.01873
333.4 K	0.02597
338.5 K	0.03782
343.3 K	0.05432
348.4 K	0.07513
353.3 K	0.09857
358.3 K	0.1302
363.4 K	0.1815
368.4 K	0.2462
373.4 K	0.3099

O=C(O)C1C2CC3CC(C2)CC1C3 (stereo not given) [adamantane-2-carboxylic acid]
[1], Crystal
Details	vapor or sublimation pressure
344.3 K	0.00066 kPa
347.3 K	0.00087 kPa
350.3 K	0.00113 kPa
353.4 K	0.00157 kPa
355.4 K	0.0018 kPa
356.4 K	0.00212 kPa
358.4 K	0.00246 kPa
360.4 K	0.00307 kPa
362.4 K	0.00345 kPa
364.4 K	0.00436 kPa
365.8 K	0.0048 kPa
368.3 K	0.00577 kPa
368.4 K	0.00595 kPa
369.4 K	0.00628 kPa
370.4 K	0.00725 kPa
371.4 K	0.00757 kPa
373.4 K	0.00923 kPa
374.4 K	0.00992 kPa
376.4 K	0.01193 kPa
377.4 K	0.01257 kPa and 0.01301 kPa
378.4 K	0.01382 kPa
380.3 K	0.01584 kPa
381.3 K	0.01701 kPa
383.4 K	0.02003 kPa
386.4 K	0.02497 kPa

Details	Triple point temperature [K]
[1], Crystal	416.3

Details	Molar enthalpy of transition or fusion [kcal/mol]
[2]	2.34

O=C(O)C12CC3CC(CC(C3)C1)C2 [tricyclo[3.3.1.1(3,7)]decane-1-carboxylic acid]
[1], Crystal
Details	vapor or sublimation pressure [kPa]
345.2 K	0.0009
348.2 K	0.00122
353.2 K	0.00193
356.7 K	0.00266
360.2 K	0.00382
362.2 K	0.00453
365.2 K	0.00575
367.7 K	0.00692
370.2 K	0.00896
370.3 K	0.00895
373.2 K	0.01102
375.2 K	0.01263
377.3 K	0.01524
377.7 K	0.01587
380.2 K	0.01902
382.2 K	0.02303
385.3 K	0.02961

Details	Triple point temperature [K]
[1], Crystal	449.1

Details	Molar enthalpy of transition or fusion [kcal/mol]
[2]	4.21
